What was measured:
[1] = test system: Eupatorium adenophorum; test: Spraying herbicide aqueous solution on Eupatorium adenophorum plants (contact killing); type: in vivo
Method: (1) 25 mL of the methyl 4-hydroxyphenylacetate herbicide aqueous solution prepared in Example 1 was taken and sprayed evenly on the surface of Eupatorium adenophorum plants.
When not sprayed, the Eupatorium adenophorum plant had one pair of top leaves, one head inflorescence, one pair of tender leaves under the top leaves, and three pairs of mature leaves. The plant was healthy and vigorous, with a height of 40-50 cm. […] The uppermost one pair of mature leaves among the three pairs of mature leaves withered in a large area. The lower two pairs of mature leaves began to wither from the edge inwards, and the axillary buds also died. These deaths were irreversible.
(2) 25 mL of the methyl 4-hydroxyphenylacetate herbicide aqueous solution prepared in Example 3 was taken and sprayed evenly on the surface of Eupatorium adenophorum plants.
When not sprayed, the Eupatorium adenophorum plant had one pair of top leaves, one head inflorescence, one pair of tender leaves under the inflorescence, and four pairs of mature leaves. The plant was healthy and vigorous, with a height of 40-50 cm.
(5) 25 mL of the methyl 4-hydroxyphenylacetate herbicide aqueous solutions prepared in Comparative Examples 1 to 2 were taken and sprayed evenly on the surface of Eupatorium adenophorum plants.

[2] = Dissolution of methyl 4-hydroxyphenylacetate in 15% ethanol solution; type: physicochemical; details: 1.82787 g in 50 mL of 15% ethanol solution
Method: The methyl 4-hydroxyphenylacetate was purchased on the market. 1.82787 g of methyl 4-hydroxyphenylacetate was weighed, and added with 50 mL of a 15% absolute ethanol solution for dissolution.

solubility in 15% absolute ethanol solution [2]: could not be sufficiently dissolved
Compound: COC(=O)Cc1ccc(O)cc1 [methyl 4-hydroxyphenylacetate, Methyl 4-hydroxyphenylacetate]
effect on Eupatorium adenophorum at use concentration greater than 150 mmol/L ([1]; sprayed once): contact killing effect
time after spraying until old leaves / plant are basically withered ([1]; use concentration greater than 150 mmol/L): 4 to 5 days

Source: US20230345936A1, “NOVEL ENVIRONMENT-FRIENDLY HERBICIDE” (KUNMING INSTITUTE OF BOTANY, CHINESE ACADEMY OF SCIENCES, priority 2022, published 2023)
